Earlier results as cited in patent US12318376B2, “Compositions of a polyorthoester and an aprotic solvent” (Heron Therapeutics, Inc., priority 2013, dated 2025).

Conditions: for Water Miscibility: solvent in water, room temperature (20-25° C.)

Structure (SMILES) | Water Miscibility | Water Miscibility (amount in brackets) (printed in brackets under the miscibility class)
CC1COC(=O)O1 (stereo not drawn) [4-methyl-1,3-diololan-2-one] | water miscible | –
O=C1CCCN1C1CCCCC1 [N-cyclohexyl-2-pyrrolidone] | poorly miscible | –
CN1CCCC1=O [N-methyl-2-pyrrolidone (NMP), N-methyl-2-pyrrolidone] | water miscible | –
O=C(OCc1ccccc1)c1ccccc1 [benzyl benzoate] | poorly miscible | –
C[S+](C)[O-] [dimethyl sulfoxide] | water miscible | –
O=C1CCCCCO1 [ester-caprolactone] | water miscible | –
CCOC(C)=O [ethyl acetate] | partially miscible | (8.3 g/100 ml)
CCOC(=O)C(C)O (stereo not drawn) [ethyl lactate] | water miscible | –
CCCCCCCC/C=C\CCCCCCCC(=O)OCC [ethyl oleate] | poorly miscible | –
CCCCCCCCCCCCCC(=O)OC(C)C [isopropyl myristate] | poorly miscible | –
COC(C)=O [methyl acetate] | water miscible | –
COC(=O)C(C)O (stereo not drawn) [methyl lactate] | water miscible | –
CCN1CCCC1=O [n-ethyl-2-pyrrolidone] | water miscible | –
C1CCOC1 [tetrahydrofuran] | water miscible | –
